In publication PMC5601486, “Identification of 4-phenylquinolin-2(1H)-one as a specific allosteric inhibitor of Akt” (Scientific Reports, 2017):

What was measured:
Test in all cases: KINOMEscan
Conditions in all cases: 50000 nM
FLT3(K663Q) = tested on: FLT3(K663Q)
Method: KINOMEscan™ selectivity screen
(§1) Briefly, Kinase-tagged T7 phage strains were grown in parallel in an E. coli host derived from the BL21 strain. E. coli were grown to log-phase and infected with T7 phage from a frozen stock and incubated with shaking at 32°C until lysis (90-150 minutes). The kinases were produced in HEK-293 cells and subsequently tagged with DNA for qPCR detection. Streptavidin-coated magnetic beads were treated with biotinylated small molecule ligands to generate affinity resins for kinase
(§2) inhibitor or DMSO control was performed in polypropylene 384-well plates for 1 hr at room temperature. After wash with PBS buffer containing 0.05% Tween 20, the beads were incubated in elution buffer (PBS containing 0.05 % Tween 20 and 0.5 μM non-biotinylated affinity ligand) for 30 minutes at room temperature. The kinase concentration in the eluates was measured by qPCR.

CDK9 = tested on: CDK9
Method: KINOMEscan™ selectivity screen
as §1, §2

MET = tested on: MET
Method: KINOMEscan™ selectivity screen
(§3) The assay was perfor med at DiscoveRx Corporation according the methods published previously5. Briefly, Kinase-tagged T7 phage strains were grown in parallel in an E. coli host derived from the BL21 strain. E. coli were grown to log-phase and infected with T7 phage from a frozen stock and incubated with shaking at 32°C until lysis (90-150 minutes). The kinases were produced in HEK-293 cells and subsequently tagged with DNA for qPCR detection. Streptavidin-coated magnetic beads were treated with biotinylated small molecule ligands to generate affinity resins for kinase
as §2

IKK-alpha = tested on: IKK-alpha
Method: KINOMEscan™ selectivity screen
as §3, §2

CSF1R = tested on: CSF1R
Method: KINOMEscan™ selectivity screen
as §3, §2

MARK3 = tested on: MARK3
Method: KINOMEscan™ selectivity screen
as §3, §2

[1] = tested on: ABL1(F317L)-nonphosphorylated
Method: KINOMEscan™ selectivity screen
as §3, §2

RET(M918T) = tested on: RET(M918T)
Method: KINOMEscan™ selectivity screen
as §3, §2

CLK1 = tested on: CLK1
Method: KINOMEscan™ selectivity screen
as §1, §2

PRKG1 = tested on: PRKG1
Method: KINOMEscan™ selectivity screen
as §3, §2

RET(V804L) = tested on: RET(V804L)
Method: KINOMEscan™ selectivity screen
as §3, §2

YSK1 = tested on: YSK1
Method: KINOMEscan™ selectivity screen
as §3, §2

PIK3CA(H1047Y) = tested on: PIK3CA(H1047Y)
Method: KINOMEscan™ selectivity screen
as §3, §2

MEK5 = tested on: MEK5
Method: KINOMEscan™ selectivity screen
as §3, §2

CAMK1B = tested on: CAMK1B
Method: KINOMEscan™ selectivity screen
(§4) The assay was perfor med at DiscoveRx Corporation according the methods published previously5. […] The kinases were produced in HEK-293 cells and subsequently tagged with DNA for qPCR detection. Streptavidin-coated magnetic beads were treated with biotinylated small molecule ligands to generate affinity resins for kinase
as §2

ADCK3 = tested on: ADCK3
Method: KINOMEscan™ selectivity screen
as §3, §2

CDKL2 = tested on: CDKL2
Method: KINOMEscan™ selectivity screen
as §1, §2

CAMK1D = tested on: CAMK1D
Method: as §1, §2

MAP3K3 = tested on: MAP3K3
Method: KINOMEscan™ selectivity screen
as §1, §2

MINK = tested on: MINK
Method: KINOMEscan™ selectivity screen
as §3, §2

PRKD2 = tested on: PRKD2
Method: KINOMEscan™ selectivity screen
as §3, §2

GAK = tested on: GAK
Method: KINOMEscan™ selectivity screen
as §4, §2

[2] = tested on: RSK2(Kin.Dom.2-C-terminal)
Method: KINOMEscan™ selectivity screen
as §3, §2

CLK3 = tested on: CLK3
Method: KINOMEscan™ selectivity screen
as §1, §2

CSNK1A1 = tested on: CSNK1A1
Method: KINOMEscan™ selectivity screen
as §3, §2

ERK8 = tested on: ERK8
Method: KINOMEscan™ selectivity screen
as §3, §2

[3] = tested on: RPS6KA4(Kin.Dom.2-C-terminal)
Method: KINOMEscan™ selectivity screen
as §3, §2

MYLK = tested on: MYLK
Method: KINOMEscan™ selectivity screen
as §3, §2

WNK1 = tested on: WNK1
Method: KINOMEscan™ selectivity screen
as §3, §2

MAP4K5 = tested on: MAP4K5
Method: KINOMEscan™ selectivity screen
as §3, §2

KIT(V559D,T670I) = tested on: KIT(V559D,T670I)
Method: KINOMEscan™ selectivity screen
as §3, §2

MKNK1 = tested on: MKNK1
Method: KINOMEscan™ selectivity screen
as §1, §2

FES = tested on: FES
Method: KINOMEscan™ selectivity screen
as §1, §2

ROCK1 = tested on: ROCK1
Method: KINOMEscan™ selectivity screen
as §1, §2

GRK3 = tested on: GRK3
Method: KINOMEscan™ selectivity screen
as §1, §2

MRCKB = tested on: MRCKB
Method: as §1, §2

[4] = tested on: ABL1(F317L)-phosphorylated
Method: KINOMEscan™ selectivity screen
as §3, §2

PIP5K2B = tested on: PIP5K2B
Method: KINOMEscan™ selectivity screen
as §3, §2

TSSK1B = tested on: TSSK1B
Method: KINOMEscan™ selectivity screen
Briefly, Kinase-tagged T7 phage strains were grown in parallel in an E. coli host derived from the BL21 strain. E. coli were grown to log-phase and infected with T7 phage from a frozen stock and incubated with shaking at 32°C until lysis (90-150 minutes). The kinases were produced in HEK-293 cells and subsequently tagged with DNA for qPCR detection.
After wash with PBS buffer containing 0.05% Tween 20, the beads were incubated in elution buffer (PBS containing 0.05 % Tween 20 and 0.5 μM non-biotinylated affinity ligand) for 30 minutes at room temperature. The kinase concentration in the eluates was measured by qPCR.

MAP3K15 = tested on: MAP3K15
Method: KINOMEscan™ selectivity screen
as §1, §2

BUB1 = tested on: BUB1
Method: KINOMEscan™ selectivity screen
as §3, §2

p38-beta = tested on: p38-beta
Method: KINOMEscan™ selectivity screen
as §3, §2

JNK1 = tested on: JNK1
Method: KINOMEscan™ selectivity screen
as §3, §2

LIMK2 = tested on: LIMK2
Method: KINOMEscan™ selectivity screen
as §3, §2

CDK5 = tested on: CDK5
Method: KINOMEscan™ selectivity screen
as §3, §2

HIPK2 = tested on: HIPK2
Method: KINOMEscan™ selectivity screen
as §3, §2

CSF1R-autoinhibited = tested on: CSF1R-autoinhibited
Method: KINOMEscan™ selectivity screen
as §3, §2

YANK1 = tested on: YANK1
Method: KINOMEscan™ selectivity screen
as §1, §2

AURKC = tested on: AURKC
Method: KINOMEscan™ selectivity screen
as §3, §2

[5] = tested on: ABL1(H396P)-nonphosphorylated
Method: KINOMEscan™ selectivity screen
as §3, §2

EGFR(T790M) = tested on: EGFR(T790M)
Method: KINOMEscan™ selectivity screen
as §3, §2

MRCKA = tested on: MRCKA
Method: KINOMEscan™ selectivity screen
as §3, §2

DCAMKL2 = tested on: DCAMKL2
Method: KINOMEscan™ selectivity screen
as §3, §2

Oc1cc(-c2ccccc2)c2ccccc2n1 [G7, 4-phenylquinolin-2(1H)-one]
Percent Control (FLT3(K663Q)): 29% | Percent Control (CDK9): 99% | Percent Control (MET): 73% | Percent Control (IKK-alpha): 92% | Percent Control (CSF1R): 7.4% | Percent Control (MARK3): 87% | Percent Control [1]: 94% | Percent Control (RET(M918T)): 70% | Percent Control (CLK1): 69% | Percent Control (PRKG1): 70% | Percent Control (RET(V804L)): 83% | Percent Control (YSK1): 70% | Percent Control (PIK3CA(H1047Y)): 100% | Percent Control (MEK5): 70% | Percent Control (CAMK1B): 52% | Percent Control (ADCK3): 92% | Percent Control (CDKL2): 69% | Percent Control (CAMK1D): 87% | Percent Control (MAP3K3): 62% | Percent Control (MINK): 77% | Percent Control (PRKD2): 82% | Percent Control (GAK): 56% | Percent Control [2]: 100% | Percent Control (CLK3): 92% | Percent Control (CSNK1A1): 80% | Percent Control (ERK8): 46% | Percent Control [3]: 92% | Percent Control (MYLK): 90% | Percent Control (WNK1): 97% | Percent Control (MAP4K5): 100% | Percent Control (KIT(V559D,T670I)): 44% | Percent Control (MKNK1): 69% | Percent Control (FES): 92% | Percent Control (ROCK1): 69% | Percent Control (GRK3): 100% | Percent Control (MRCKB): 84% | Percent Control [4]: 64% | Percent Control (PIP5K2B): 100% | Percent Control (TSSK1B): 93% | Percent Control (MAP3K15): 71% | Percent Control (BUB1): 85% | Percent Control (p38-beta): 97% | Percent Control (JNK1): 75% | Percent Control (LIMK2): 97% | Percent Control (CDK5): 75% | Percent Control (HIPK2): 63% | Percent Control (CSF1R-autoinhibited): 16% | Percent Control (YANK1): 100% | Percent Control (AURKC): 66% | Percent Control [5]: 62% | Percent Control (EGFR(T790M)): 100% | Percent Control (MRCKA): 100% | Percent Control (DCAMKL2): 97%
